Test results taken from publication PMC2939296 (Bioorganic & medicinal chemistry letters, 2010).

Tests used:
Human MIF = molecular target: T1, Human MIF (Homo sapiens, UniProt P14174); conditions: cited from earlier work
T1 sequence (P14174 2-115 limits assumed): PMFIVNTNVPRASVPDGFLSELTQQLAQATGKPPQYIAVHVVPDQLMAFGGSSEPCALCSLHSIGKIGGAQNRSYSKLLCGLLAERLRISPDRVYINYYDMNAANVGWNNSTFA

rh-MIF = molecular target: T2, rh-MIF (Homo sapiens, UniProt P14174); assay: Mass spectrometry; conditions: 30 μM rh-MIF plus 30 μM compound, 1 hr at room temperature in the dark
T2 sequence (P14174 2-115 limits assumed): T1 sequence (P14174 2-115 limits assumed)

MIF-CD74 = molecular target: T3, MIF-CD74 (Homo sapiens, UniProt P14174); conditions: cited from earlier work
T3 sequence (P14174 2-115 limits assumed): T1 sequence (P14174 2-115 limits assumed)

Q: For `Cc1ccc2oc(=O)n(Cc3ccccc3)c2c1` [Cp 1], which “mode of inhibition of tautomerase activity (Michaelis-Menten analyses)” value (Human MIF) is on record?
A: competitive inhibitor

Q: For `Ic1cc(-c2ccccc2)ncn1` [Cp 4-IPP, 4-iodo-6-phenylpyrimidine], which “covalent adduct with MIF by mass spectrometry” value (rh-MIF) is on record?
A: appearance of the covalent adduct at the mass of MIF + ca. 155 Da

Q: For `Cc1ccc2oc(=O)n(Cc3cccc(O)c3)c2c1` [Cp 5], which “covalent adduct with MIF by mass spectrometry” value (rh-MIF) is on record?
A: no additional peaks emerged

Q: With `CC(=O)N=C1C=CC(=O)C=C1` [NAPQI] as the compound, how does the “effect on MIF receptor binding activity” value (MIF-CD74) read?
A: decreases

Q: And the “effect on MIF tautomerase activity” value (Human MIF)?
A: decreases
